Results reported in patent US20100285476A1, “METHODS OF IDENTIFYING HISTONE DEACETYLASE INHIBITORS USEFUL FOR NEUROLOGICAL DISORDERS” (priority 2007, published 2010).

What was measured:
HDACs 1-10 = experiment: Panel of individual purified HDAC enzymes (HDACs 1-10); assay type: biochemical, human
HDAC2 = HDAC2 (Homo sapiens, UniProt Q92769); experiment: HDAC enzyme inhibition assay, purified HDAC2; assay type: biochemical
HDAC3 = HDAC3 (Homo sapiens, UniProt O15379); experiment: HDAC enzyme inhibition assay, purified HDAC3; assay type: biochemical; conditions: for Relative Inhibitory Activity HDAC 1/3: IC50 for HDAC1 divided by IC50 for HDAC3; for Relative Inhibitory Activity HDAC 2/3: IC50 for HDAC2 divided by IC50 for HDAC3; for Relative Inhibitory Activity HDAC 5/3: IC50 for HDAC5 divided by IC50 for HDAC3; for IC50: purified HDAC3
Sequence of HDAC3 (O15379 whole entry): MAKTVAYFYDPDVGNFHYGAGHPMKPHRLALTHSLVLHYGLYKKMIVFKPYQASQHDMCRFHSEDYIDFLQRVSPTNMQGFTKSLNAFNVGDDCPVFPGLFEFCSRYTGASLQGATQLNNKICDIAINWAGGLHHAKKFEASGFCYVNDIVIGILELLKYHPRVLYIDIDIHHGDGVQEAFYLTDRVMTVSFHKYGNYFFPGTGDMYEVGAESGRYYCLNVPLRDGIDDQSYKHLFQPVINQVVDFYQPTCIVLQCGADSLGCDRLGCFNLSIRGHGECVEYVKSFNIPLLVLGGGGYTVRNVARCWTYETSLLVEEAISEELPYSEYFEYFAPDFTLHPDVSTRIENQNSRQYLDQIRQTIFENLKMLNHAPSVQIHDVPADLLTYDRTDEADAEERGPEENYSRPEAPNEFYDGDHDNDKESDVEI
Sequence of HDAC3 (Q9Y618 395-489 partner limits assumed): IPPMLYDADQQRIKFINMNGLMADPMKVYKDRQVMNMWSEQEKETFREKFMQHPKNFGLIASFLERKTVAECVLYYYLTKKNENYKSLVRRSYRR

HDAC5 = HDAC5 (Homo sapiens, UniProt Q9UQL6); experiment: HDAC enzyme inhibition assay, purified HDAC5; assay type: biochemical
Sequence of HDAC5 (Q9UQL6 whole entry): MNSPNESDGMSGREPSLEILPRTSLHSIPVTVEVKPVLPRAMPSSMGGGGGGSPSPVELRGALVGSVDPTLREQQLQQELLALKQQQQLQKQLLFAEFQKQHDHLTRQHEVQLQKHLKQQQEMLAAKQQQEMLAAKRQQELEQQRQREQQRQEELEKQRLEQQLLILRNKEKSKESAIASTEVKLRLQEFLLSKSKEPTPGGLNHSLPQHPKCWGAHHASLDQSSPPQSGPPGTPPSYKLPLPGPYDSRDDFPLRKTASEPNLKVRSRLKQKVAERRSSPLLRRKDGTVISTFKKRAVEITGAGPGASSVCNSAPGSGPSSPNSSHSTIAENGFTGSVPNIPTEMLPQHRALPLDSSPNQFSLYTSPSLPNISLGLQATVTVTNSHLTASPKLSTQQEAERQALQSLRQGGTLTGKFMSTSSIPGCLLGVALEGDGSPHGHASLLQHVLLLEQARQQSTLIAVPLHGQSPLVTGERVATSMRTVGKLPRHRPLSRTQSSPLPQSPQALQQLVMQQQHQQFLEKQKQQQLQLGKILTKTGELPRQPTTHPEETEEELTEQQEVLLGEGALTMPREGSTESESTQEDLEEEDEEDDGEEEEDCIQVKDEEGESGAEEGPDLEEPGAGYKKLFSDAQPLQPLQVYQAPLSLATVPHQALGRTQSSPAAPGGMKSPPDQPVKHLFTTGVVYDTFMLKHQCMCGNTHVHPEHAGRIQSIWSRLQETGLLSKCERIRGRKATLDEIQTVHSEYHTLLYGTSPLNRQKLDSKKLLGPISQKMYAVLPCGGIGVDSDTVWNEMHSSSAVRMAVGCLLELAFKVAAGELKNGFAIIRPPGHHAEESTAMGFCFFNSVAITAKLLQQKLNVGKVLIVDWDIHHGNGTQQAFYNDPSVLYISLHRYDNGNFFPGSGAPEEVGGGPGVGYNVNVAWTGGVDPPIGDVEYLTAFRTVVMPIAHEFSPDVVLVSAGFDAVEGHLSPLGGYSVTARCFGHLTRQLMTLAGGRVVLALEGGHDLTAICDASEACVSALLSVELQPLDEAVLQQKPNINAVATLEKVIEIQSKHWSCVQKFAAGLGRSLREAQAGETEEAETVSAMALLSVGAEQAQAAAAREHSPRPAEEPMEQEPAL

frataxin (FXN1) mRNA = experiment: Frataxin mRNA expression in lymphocytes by quantitative RT-PCR; conditions: for frataxin mRNA expression, result in words / Fold Increase FXN1 Expr. (10 μM): 10 μM; for frataxin mRNA expression, result in words: human lymphocytes; for Fold Increase FXN1 Expr. (10 μM): human lymphocytes of normal donors, vs vehicle control
HDAC1 = HDAC1 (Homo sapiens, UniProt Q13547); experiment: HDAC enzyme inhibition assay, purified HDAC1; assay type: biochemical
Sequence of HDAC1 (Q13547 whole entry): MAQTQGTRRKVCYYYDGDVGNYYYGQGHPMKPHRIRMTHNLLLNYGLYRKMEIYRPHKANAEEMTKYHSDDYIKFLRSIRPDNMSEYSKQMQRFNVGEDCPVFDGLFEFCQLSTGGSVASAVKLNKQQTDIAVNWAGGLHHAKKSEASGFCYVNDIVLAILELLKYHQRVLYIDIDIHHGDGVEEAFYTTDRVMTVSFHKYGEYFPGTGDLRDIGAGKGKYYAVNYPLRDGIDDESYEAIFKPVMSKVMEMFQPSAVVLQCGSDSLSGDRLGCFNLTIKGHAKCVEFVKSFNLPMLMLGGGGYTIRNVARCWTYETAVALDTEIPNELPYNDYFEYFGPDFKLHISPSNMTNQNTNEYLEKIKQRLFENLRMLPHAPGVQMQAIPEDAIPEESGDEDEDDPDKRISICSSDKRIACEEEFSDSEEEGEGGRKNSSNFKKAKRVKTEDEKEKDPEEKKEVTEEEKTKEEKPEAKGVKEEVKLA

HepG2 cells = experiment: Growth inhibition of HepG2 cells (CellTiter 96 AQueous One Solution); assay type: cell-based, human; conditions: for cytotoxicity, result in words / IC50: HepG2 cells; for HepG2/HDAC3 (estimated therapeutic index): HepG2 growth IC50 divided by IC50 for HDAC3; for IC50: Homo sapiens, 72 hours

Sequence of HDAC2 (Q92769 whole entry): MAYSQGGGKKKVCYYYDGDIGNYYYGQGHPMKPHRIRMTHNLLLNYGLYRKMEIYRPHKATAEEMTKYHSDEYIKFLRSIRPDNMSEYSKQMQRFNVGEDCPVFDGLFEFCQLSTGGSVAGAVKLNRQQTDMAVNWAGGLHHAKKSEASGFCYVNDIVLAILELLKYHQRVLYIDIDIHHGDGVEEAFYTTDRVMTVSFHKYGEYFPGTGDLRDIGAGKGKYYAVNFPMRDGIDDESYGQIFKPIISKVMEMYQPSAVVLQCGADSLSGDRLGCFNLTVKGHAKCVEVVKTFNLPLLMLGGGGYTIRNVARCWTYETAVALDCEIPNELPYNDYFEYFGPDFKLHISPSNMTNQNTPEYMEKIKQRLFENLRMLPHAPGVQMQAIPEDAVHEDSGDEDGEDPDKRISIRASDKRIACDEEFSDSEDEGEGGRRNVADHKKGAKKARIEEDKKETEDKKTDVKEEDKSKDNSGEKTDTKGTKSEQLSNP

SMILES | inhibition of all HDACs tested, result in words (HDACs 1-10) | IC50 (HDAC2) | HDAC3 inhibition, result in words (HDAC3) | Relative Inhibitory Activity HDAC 1/3 (HDAC3) | Relative Inhibitory Activity HDAC 2/3 (HDAC3) | Relative Inhibitory Activity HDAC 5/3 (HDAC3) | IC50 (HDAC3) | IC50 (HDAC5) | frataxin mRNA expression, result in words (frataxin (FXN1) mRNA) | Fold Increase FXN1 Expr. (10 μM) (frataxin (FXN1) mRNA) | IC50 (HDAC1) | cytotoxicity, result in words (HepG2 cells) | HepG2/HDAC3 (estimated therapeutic index) (HepG2 cells) | IC50 (HepG2 cells) | maximum observed increase of frataxin expression (frataxin (FXN1) mRNA; 1-30 μM, normal lymphocytes, compared to vehicle control (FIG. 1)) | frataxin expression, result in words (frataxin (FXN1) mRNA; normal lymphocytes or patient lymphocytes, all concentrations tested (1-30 μM))
CC(/C=C/C(=O)NO)=C\[C@@H](C)C(=O)c1ccc(N(C)C)cc1 [TSA, trichostatin A] | Sub-micromolar inhibition |  |  |  |  |  |  |  |  |  |  |  |  |  |  | 
Cc1ccc(NC(=O)CCCCCC(=O)NO)cc1 [Compound 21] |  | 2.92 µM | strong HDAC3 inhibitory activity | 3.7 | 9.1 | 5.1 | 0.32 µM | 1.63 µM | effective to increase frataxin expression | 2.0 Fold | 1.19 µM | relatively low cytotoxicity | 31 | 10 µM |  | 
Nc1ccccc1NC(=O)c1ccc(CNC(=O)OCc2cccnc2)cc1 [MS-275, reference compound] |  |  |  |  |  |  |  |  | did appreciably increase frataxin mRNA expression |  |  | may be too cytotoxic for long-term use |  |  |  | 
Cc1ccc(NC(=O)CCCCCC(=O)Nc2ccccc2N)cc1 [RGFA8, N^1-(2-aminophenyl)-N^7-p-tolylheptanediamide] |  |  |  |  |  |  |  |  |  |  |  |  |  |  | about 16 fold | increased expression of frataxin
Cc1ccc(NC(=O)CCCCCC(=O)N2CCN(c3ccccc3)CC2)cc1 [Compound 6] |  | 5.9 µM | did not show strong inhibition of HDAC3 | 0.45 | 0.65 | 2.0 | 9.1 µM | 18.2 µM | not active to increase frataxin expression | none | 4.2 µM |  | 12.3 | 112 µM |  | 
